{
  "source": "ChEMBL document CHEMBL1157318",
  "about": "“Caryophyllene sesquiterpenoids from a fungicolous isolate of Pestalotiopsis disseminata” (2006)",
  "key": {"[1]": {"test_system": "Fusarium verticillioides", "assay": "Antimicrobial activity against Fusarium verticillioides NRRL 25457 at 200 ug/disk by agar disk diffusion method", "format": "functional, organism-based"}, "[2]": {"test_system": "Staphylococcus aureus", "assay": "Antimicrobial activity against Staphylococcus aureus ATCC 29213 at 100 ug/disk by agar disk diffusion method", "format": "functional", "conditions": "for zone of inhibition at 100 µg/disc: read-out: IZ"}, "[3]": {"test_system": "Candida albicans", "assay": "Antimicrobial activity against Candida albicans ATCC 14053 at 100 ug/disk by agar disk diffusion method", "format": "functional, organism-based"}, "[4]": {"test_system": "Aspergillus flavus", "assay": "Antimicrobial activity against sAspergillus flavus NRRL 6541 at 200 ug/disk by agar disk diffusion method", "format": "functional, organism-based"}, "[5]": {"test_system": "Bacillus subtilis", "assay": "Antimicrobial activity against Bacillus subtilis ATCC 6051 at 100 ug/disk by agar disk diffusion method", "format": "functional", "conditions": "for zone of inhibition at 100 µg/disc: read-out: IZ"}, "[6]": {"test_system": "Escherichia coli", "assay": "Antimicrobial activity against sEscherichia coli ATCC 25922 at 100 ug/disk by agar disk diffusion method", "format": "functional, organism-based"}},
  "note": "Calls of active or inactive are those of the source. The calls are words filed in the database; no cut-off is given here.",
  "data": [
    {"compound": "CC1(C)C[C@@H]2/C(CO)=C\\C=C/[C@@](C)(O)C[C@H](O)[C@]21O", "note": "[6-HYDROXYPUNCTAPORONIN B]", "values": [
      {"measurement": "Activity", "setting": "[1]", "value": "inactive"},
      {"measurement": "zone of inhibition at 100 µg/disc", "setting": "[2]", "value": 8, "unit": "mm"},
      {"measurement": "Activity", "setting": "[3]", "value": "inactive"},
      {"measurement": "Activity", "setting": "[4]", "value": "inactive"},
      {"measurement": "zone of inhibition at 100 µg/disc", "setting": "[5]", "value": 12, "unit": "mm"},
      {"measurement": "Activity", "setting": "[6]", "value": "inactive"}
    ]},
    {"compound": "CC1(C)C[C@H]2[C@@]1(O)[C@@H](O)C[C@]1(C)C=C[C@@H](O)[C@]21CO", "values": [
      {"measurement": "Activity", "setting": "[1]", "value": "inactive"},
      {"measurement": "zone of inhibition at 100 µg/disc", "setting": "[2]", "value": 8, "unit": "mm"},
      {"measurement": "Activity", "setting": "[3]", "value": "inactive"},
      {"measurement": "Activity", "setting": "[4]", "value": "inactive"},
      {"measurement": "zone of inhibition at 100 µg/disc", "setting": "[5]", "value": 12, "unit": "mm"},
      {"measurement": "Activity", "setting": "[6]", "value": "inactive"}
    ]},
    {"compound": "CC1(C)C[C@H]2[C@@]1(O)[C@@H](O)C[C@]1(C)[C@H](O)C=C[C@]21CO", "values": [
      {"measurement": "Activity", "setting": "[1]", "value": "inactive"},
      {"measurement": "Activity", "setting": "[2]", "value": "inactive"},
      {"measurement": "Activity", "setting": "[3]", "value": "inactive"},
      {"measurement": "Activity", "setting": "[4]", "value": "inactive"},
      {"measurement": "Activity", "setting": "[5]", "value": "inactive"},
      {"measurement": "Activity", "setting": "[6]", "value": "inactive"}
    ]}
  ]
}
